# Experimental data reported in US20250327032A1, “AGENT FOR AVOIDING IMMUNE RESPONSE OF TRANSGENIC CELLS” (HYPERION DRUG DISCOVERY CO., LTD., priority 2021, published 2025).
# Key:
# Assay type in all cases: cell-based
# [1] = system: human mesenchymal stem cells; assay: Introduction of GFP mRNA by lipofection, yield of GFP-positive cells; conditions: 10 pg/cell
# Experimental: (§1) Human mesenchymal stem cells were seeded in a 6-well plate to be about 10,000 cells/cm^2. Human myoblasts were seeded in another 6-well plate to be about 20,000 cells/cm^2. As a culture solution, a basal medium for each cell supplemented with 0.1, 1, or 10 μM of JSH-23 was used. As a control, a basal medium for each cell supplemented with 0.1% (v/v) DMSO instead of JSH-23 was used as a culture solution.
# (§2) A lipofection solution was prepared by adding Lipofectamine RNAiMAX and fluorescent protein GFP mRNA to OptiMEM. As the GFP mRNA, that containing uridine or that containing pseudouridine instead of uridine was used. In addition, for those containing pseudouridine, a basal medium for each cell supplemented with 1 μM of JSH-23 was used, and as a control, a basal medium for each cell supplemented with 0.1% (v/v) DMSO instead of JSH-23 was used as a culture solution. It was prepared so that the amount of mRNA was 10 pg/cell for human mesenchymal stem cells and 5 pg/cell for human myoblasts. The prepared lipofection solution was mixed well according to the manufacturer's recommended protocol and allowed to stand at room temperature for about 15 minutes.
# (§3) Next, each lipofection solution was added to the plate seeded with human mesenchymal stem cells or human myoblasts, and cultured in a CO2 incubator at 37° C. for about 1 day (18 hours) (human mesenchymal stem cells) or for 2 days (42 hours) (human myoblasts). After culturing, all the culture solution comprising the lipofection solution was removed and replaced with a new culture solution having the same composition as before the addition of the lipofection solution.
# (§4) After another 6 hours, the above lipofection solution was newly prepared, added again to the plate seeded with human mesenchymal stem cells or human myoblasts, and cultured in a CO2 incubator at 37° C. for about 1 day (18 hours) (mesenchymal stem cells) or about 2 days (42 hours) (human myoblasts). These steps were repeated so that the introduction of genes was performed a total of 4 times.
# (§5) Twenty-four hours after the final introduction of genes, the cells were detached with a cell detachment solution, centrifuged at 600×g for 5 minutes using a centrifuge, to collect the cells. The collected cells were counted using a hemocytometer. Furthermore, the GFP-positive percentage of the collected cells was measured using a flow cytometer. The yield of the number of GFP-positive cells was calculated from the number of cells counted and the GFP-positive rate.
# as §1, with “1” for “0.1, 1, or 10”, “calcitriol” for “JSH-23”
# (§6) A lipofection solution was prepared by adding Lipofectamine RNAiMAX and fluorescent protein GFP mRNA to OptiMEM. As the GFP mRNA, that containing uridine, or that containing pseudouridine instead of uridine was used. It was prepared so that the amount of mRNA was 10 pg/cell for human mesenchymal stem cells and 5 pg/cell for human myoblasts. The prepared lipofection solution was mixed well according to the manufacturer's recommended protocol and allowed to stand at room temperature for about 15 minutes.
# human myoblasts [2] = assay: as above; conditions: 5 pg/cell
# Experimental: as §1, §2, §3, §4, §5
# as §1, with “1” for “0.1, 1, or 10”, “calcitriol” for “JSH-23”
# as §6
# [3] = system: human mesenchymal stem cells; assay: Introduction of TERT mRNA by lipofection, number of viable cells; conditions: JSH-23 1 μM, 10 pg/cell
# Experimental: as §1, with “1” for “0.1, 1, or 10”
# as §6, with “TERT” for “fluorescent protein GFP”, “TERT” for “GFP”
# as §3, §4
# (§7) Twenty-four hours after the final introduction of genes, the cells were detached with a cell detachment solution, centrifuged at 600×g for 5 minutes using a centrifuge, to collect the cells. The collected cells were counted using a hemocytometer.
# human myoblasts [4] = assay: as above; conditions: JSH-23 1 μM, 5 pg/cell
# Experimental: as §1, with “1” for “0.1, 1, or 10”
# as §6, with “TERT” for “fluorescent protein GFP”, “TERT” for “GFP”
# as §3, §4, §7
# [5] = system: Human leukemia T cells (Jurkat E6.1); assay: Introduction of GFP-tagged CAR-T plasmid by lipofection, yield of GFP-positive cells; conditions: JSH-23 0.1 μM; GFP-tagged CAR-T plasmid 1 pg/cell
# Experimental: Human leukemia T cells (Jurkat E6.1) were seeded in a 6-well plate to be about 10,000 cells/cm^2. As a culture solution, RPMI1640 medium comprising 10% bovine serum was used. To this, 0.1 μM of JSH-23 was added, or for comparison, 0.1% (v/v) DMSO instead of JSH-23 was added and used.
# A lipofection solution was prepared by adding Lipofectamine 2000 and GFP-tagged CAR-T plasmid to OptiMEM. The amount of CAR-T plasmid was prepared to be 1 pg/cell. The prepared lipofection solution was mixed well according to the manufacturer's recommended protocol and allowed to stand at room temperature for about 15 minutes.
# Next, the lipofection solution was added to the plate seeded with human leukemia T cells, and cultured in a CO2 incubator at 37° C. for about 1 day (18 hours). […]
# as §5, with “collected and” for “detached with a cell detachment solution,”, “800 rpm” for “600×g”, “percentage.” for “rate.”
# [6] = GFP mRNA containing pseudouridine instead of uridine, JSH-23 1 μM
# [7] = TERT mRNA containing pseudouridine instead of uridine
compound,measurement,setting,value
Cc1ccc(NCCCc2ccccc2)c(N)c1 [JSH-23],yield of GFP-positive cells compared to the control (control set to 1),[1]; [6],≥ 7 times
same,yield of GFP-positive cells compared to the control (control set to 1),"[1]; GFP mRNA containing uridine, 4 introductions, JSH-23 0.1, 1 or 10 μM, maximal at 1 μM, control 0.1% DMSO",≥ 7 times
same,yield of GFP-positive cells compared to the control (control set to 1),human myoblasts [2]; [6],≥ 2 times
same,yield of GFP-positive cells compared to the control (control set to 1),"human myoblasts [2]; GFP mRNA containing uridine, JSH-23 0.1, 1 or 10 μM",≥ 3 times
same,yield (number of viable cells) compared to the control (control set to 1),[3]; [7],≥ 1.3 times
same,yield (number of viable cells) compared to the control (control set to 1),[3]; TERT mRNA containing uridine,≥ 1.5 times
same,yield (number of viable cells) compared to the control (control set to 1),human myoblasts [4]; [7],≥ 5 times
same,yield (number of viable cells) compared to the control (control set to 1),human myoblasts [4]; TERT mRNA containing uridine,≥ 7 times
same,number of GFP-positive cells compared to the control (control set to 1),[5],≥ 2 times
